Measurements: patent publication US8158593B2, “GPR17 modulators, method of screening and uses thereof” (Universita' degli Studi di Milano, priority 2004, dated 2012)
Where two headings read alike, the source gives them in different places.

What was measured:
hGPR17 [1] = biological target: T1, hGPR17 (Homo sapiens, UniProt Q13304); experiment: [35S]GTPγS binding to membranes of 1321N1 cells expressing human GPR17; format: biochemical; parameters: expressed in transfected cells; host or cells: 1321N1 (A1, A5), COS-7 (A3, A6), HEK-293 (A4); pcDNA3.1; conditions: for effect on [35S]GTPγS binding (agonist response): tested at 10 and 50 μM, 1321N1 cells expressing hGPR17; for EC50: agonist, 1321N1 cells expressing human GPR17
Description: (§1) [^35S]GTPγS Binding Assay. 1321N1 cells, COS-7 and HEK-293 cells (control and transfected cells) were homogenized in 5 mM TRIS-HCl, 2 mM EDTA, pH 7.4 and centrifuged at 48000 g for 15 min at 4° C. The resulting pellets (plasma membranes) were washed in 50 mM TRIS-HCl, 10 mM MgCl2, pH 7.4 and stored at −80° C. until used. Measurement of nucleotide-stimulated [^35S]GTPγS binding to membranes of cells expressing the human or rat GPR17 receptor was performed as previously described^9-11.
(§2) To identify the endogenous ligand of GPR17, the cDNAs from human and rat GPR17 were cloned into the mammalian expression vector pcDNA3.1 and transfected in 1321N1, COS-7 and HEK-293 cells for functional characterization. GPR17 activation was assessed by testing the ability of exogenously-added ligands to increase [^35S]GTPγS binding to purified membranes obtained from transfected cells^9-11. […] The specificity of GPR17 responses were also challenged by assessing the ability of some purinergic and leukotriene receptor antagonists to counteract the increase of [^35S]GTPγS binding evoked by nucleotides and cys-LTs in 1321N1 cells expressing either the human or rat receptor. […] Because both P2Y^2,11,12 and CysLT receptors^3,13 may couple to G proteins of the Gi subfamily, to evaluate the involvement of this class of G-proteins, we preincubated 1321N1 cells expressing hGPR17 with pertussis toxin (PTX) which inactivates Gi proteins, prior to membrane preparation and [^35S]GTPγS binding.
(§3) Table 1. Potency of various ligands on [^35S]GTPγS binding to membranes obtaind from 1321N1 cells-transfected with human or rat GPR17. […] All data represent the mean of triplicate determinations from 4-9 independent experiments.

[2] = test system: ischemic brain damage (MCAo); experiment: Permanent middle cerebral artery occlusion (MCAo), brain infarct size by MRI; format: in vivo, rat; conditions: 400 ng/animal i.c.v. 48 and 24 h before and 10 min after MCAo
Description: Quantitative analysis of infarct size volume at 24 and 48 h after MCAo from rats receiving vehicle (C1, n=5) or Mtk (2 mg/kg intravenously, i.v., 10 min after MCAO; n=6); vehicle (C2, n=5) or AR-C (4.5 μg/animal intracerebroventricularly, i.c.v., 10 min after MCAo, n=5), vehicle (C3, n=5) or either oligo616 or scrambled-oligo (400 ng/animal, i.c.v., 48, 24 before and 10 min after MCAo, n=5). Data are expressed as percentage variation of infarct volume at 24 and 48 hours after MCAo compared to 2 h considered as 100% (§ p<0.05, # p<0.01 vs volume at 2 hr; *p <0.05, **p<0.01 vs corresponding control evaluated at the same time point). Induction of focal brain ischemia in the rat. Male Sprague-Dawley rats (Charles River) underwent permanent middle cerebral artery occlusion (MCAo) as previously described^28,29. […] AR-C was utilized here to simply test the involvement of GPR17 in brain ischemia, and, being a very polar molecule which is likely to very poorly permeate the blood brain barrier, it was administered i.c.v. Oligo-616 and oligo-scramble (400 ng in 5 μl of physiological solution) were administered i.c.v three times to each rat 48, 24 h before and 10 minutes after MCAo. Control groups received corresponding vehicle i.c.v. Magnetic Resonance Imaging analysis. […]

rGPR17 mRNA = experiment: Antisense down-regulation of rGPR17 mRNA in HEK-293 cells (RT-PCR); format: cell-based, rat; conditions: 0.3 μM, added 16 and 40 h after transfection
Description: FIG. 4.1 Target sequences of synthesized anti-sense oligonucleotides on rGPR17 mRNA. (a) The various anti-sense sequences were named based on the rat coding sequence (GenBank accession No.: AC112062); black arrows indicate beginning and ending of the coding sequences. All oligonucleotides, including the “scrambled” sequence, were designed as described in Methods. All these sequences were tested in vitro on HEK-293 cells expressing rGPR17 in order to select the most appropriate oligonucleotides to be utilized for the in vivo studies. Two typical experiments are shown in (b), one aimed at assaying oligo616, oligo241 and oligo99, and the other one aimed at assaying oligoSTART and oligoEND, all in comparison with scrambled oligo sequences run in parallel. On day 2 after plating, cells were transfected with pcDNA3.1 containing the construct encoding for rGPR17 together with the neomycin resistance gene, here utilized as a reported gene. […] Twenty-four h after the last Fugene addition, RNA was extracted from cells as described in Methods, and the transcripts for both rGPR17 and the neomycin resistance gene determined as specific RT-PCR amplification products of 1079 and 357 bp, respectively, as indicated. […]

rat GPR17 = biological target: T2, rat GPR17 (Rattus norvegicus, UniProt Q09QM4); experiment: [35S]GTPγS binding to membranes of 1321N1 cells expressing rat GPR17; format: biochemical; conditions: for IC50: rat GPR17; for EC50: agonist, 1321N1 cells expressing rat GPR17
T2 construct: expressed in transfected cells; host or cells: 1321N1; pcDNA3.1
Description: as §1, §2, §3

hGPR17 [3] = biological target: T1, hGPR17; experiment: [35S]GTPγS binding, COS-7 cells expressing hGPR17; format: biochemical; parameters: expressed in transfected cells; host or cells: COS-7 (A3, A6); pcDNA3.1; conditions: COS-7 cells transfected with hGPR17
Description: as §1
To identify the endogenous ligand of GPR17, the cDNAs from human and rat GPR17 were cloned into the mammalian expression vector pcDNA3.1 and transfected in 1321N1, COS-7 and HEK-293 cells for functional characterization. GPR17 activation was assessed by testing the ability of exogenously-added ligands to increase [^35S]GTPγS binding to purified membranes obtained from transfected cells^9-11. […] The specificity of GPR17 responses were also challenged by assessing the ability of some purinergic and leukotriene receptor antagonists to counteract the increase of [^35S]GTPγS binding evoked by nucleotides and cys-LTs in 1321N1 cells expressing either the human or rat receptor. […]

hGPR17 [4] = biological target: T1, hGPR17; experiment: Single cell calcium imaging in 1321N1 cells expressing hGPR17; format: cell-based; parameters: expressed in transfected cells; host or cells: 1321N1 (A1, A5), COS-7 (A3, A6), HEK-293 (A4); pcDNA3.1
Text: (§4) Polychrome IV (TILL Photonics, Germany) was used as light source. Fura-2 and EGFP fluorescence images were collected with a PCO Super […] (Axon Instruments, Forest City, Calif.) and analyzed with the Axon Imaging Workbench 2.2 software (Axon Instruments).

hGPR17 [5] = biological target: T1, hGPR17; experiment: Single cell calcium imaging in COS-7 cells expressing hGPR17; format: cell-based; parameters: expressed in transfected cells; host or cells: COS-7 (A3, A6); pcDNA3.1
Text: as §4, with “(e-h) The same agonists induced no responses in cells transfected with the empty plasmid. […] Polychrome” for “Polychrome”

T1 sequence (Q13304 29-367): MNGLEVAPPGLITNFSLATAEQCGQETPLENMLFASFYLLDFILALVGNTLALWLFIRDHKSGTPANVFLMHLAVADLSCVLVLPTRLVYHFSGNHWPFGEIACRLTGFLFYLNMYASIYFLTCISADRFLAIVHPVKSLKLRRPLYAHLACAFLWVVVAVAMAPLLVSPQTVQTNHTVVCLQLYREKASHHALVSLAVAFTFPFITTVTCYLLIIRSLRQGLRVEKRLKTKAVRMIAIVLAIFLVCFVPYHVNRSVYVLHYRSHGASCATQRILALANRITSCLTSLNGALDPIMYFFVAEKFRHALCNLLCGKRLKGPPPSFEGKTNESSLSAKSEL
T2 sequence (Q09QM4 whole entry): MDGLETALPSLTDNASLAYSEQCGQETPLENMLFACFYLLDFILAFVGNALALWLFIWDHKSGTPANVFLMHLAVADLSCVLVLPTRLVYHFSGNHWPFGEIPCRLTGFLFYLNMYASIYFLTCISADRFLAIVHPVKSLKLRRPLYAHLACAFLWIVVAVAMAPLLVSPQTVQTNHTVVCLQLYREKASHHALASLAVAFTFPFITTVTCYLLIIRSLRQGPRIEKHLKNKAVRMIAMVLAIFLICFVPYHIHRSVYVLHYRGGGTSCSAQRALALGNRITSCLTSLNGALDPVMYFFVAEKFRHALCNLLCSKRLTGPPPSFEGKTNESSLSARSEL

## CSc1nc(N)c2ncn([C@@H]3O[C@H](COP(=O)(O)OP(=O)(O)O)[C@@H](O)[C@H]3O)c2n1 [2-methyl-thio-ADP]
hGPR17 [1]
  effect on [35S]GTPγS binding (agonist response): No other nucleotides or nucleosides (i.e., ATP, ADP, 2-methyl-thio-ADP, UTP, α,βmethylenATP and guanosine, all tested at 10 and 50 μM concentrations) had any effect

## oligo616: antisense oligonucleotide designed on the sequence of rGPR17 mRNA, SEQ ID NO: 1, unmodified (antisense AACTGTACCGGGAGAAGGCC; unmodified DNA; listed as Rattus norvegicus)
[2]
  evolution of brain infarct size (MRI): markedly and significantly attenuated infarct size evolution
rGPR17 mRNA
  attenuation of rGPR17 mRNA / in vitro expression of rGPR17: able to attenuate rGPR17 mRNA

## O=C(Nc1cccc2c(=O)cc(-c3nnn[nH]3)oc12)c1ccc(OCCCCc2ccccc2)cc1 [Pranlukast]
Rat GPR17; antagonist of activation induced by 100 nM LTD4
  IC50: 31 ± 2.4 nM
hGPR17 [1]; antagonist of activation induced by 100 nM LTD4, human GPR17
  IC50: 10.5 ± 1.2 nM

## CSCCNc1nc(SCCC(F)(F)F)nc2c1ncn2C1OC(COP(=O)(O)OP(=O)(O)C(Cl)(Cl)P(=O)(O)O)C(O)C1O (stereo not drawn) [AR-C69931MX, N6-methylthio-ethyl-2-trifluoromethyl-ethylthio-adenosin-5′beta-methylene, γ-dichloromethylene trisphosphate]
Rat GPR17; antagonist of binding stimulated by 50 μM UDP-glucose
  IC50: 0.022 ± 0.0015 nM

## PTX
hGPR17 [1]; cells exposed to 100 ng/ml PTX for 18 h before membrane preparation, stimulated by UDP, UDP-galactose, UDP-glucose or LTD4
  inhibition of agonist-stimulated [35S]GTPγS binding: strongly inhibited

## Nc1ncnc2c1ncn2[C@@H]1O[C@H](COP(=O)(O)CP(=O)(O)OP(=O)(O)O)[C@@H](O)[C@H]1O [α,βmethylenATP]
hGPR17 [1]
  effect on [35S]GTPγS binding (agonist response): No other nucleotides or nucleosides (i.e., ATP, ADP, 2-methyl-thio-ADP, UTP, α,βmethylenATP and guanosine, all tested at 10 and 50 μM concentrations) had any effect

## CC(C)(O)c1ccccc1CC[C@@H](SCC1(CC(=O)O)CC1)c1cccc(/C=C/c2ccc3ccc(Cl)cc3n2)c1 [Montelukast]
hGPR17 [1]
  IC50: 60 ± 4.3 nM

## oligo241: antisense oligonucleotide designed on the sequence of rGPR17 mRNA, SEQ ID NO: 2, unmodified (antisense GGGATCACAAGTCAGGCAC; unmodified DNA; listed as Rattus norvegicus)
[2]
  evolution of brain infarct size (MRI): smaller protective effect

## Nc1ncnc2c1ncn2[C@@H]1O[C@H](COP(=O)(O)OP(=O)(O)OP(=O)(O)O)[C@@H](O)[C@H]1O [ATP]
hGPR17 [1]
  effect on [35S]GTPγS binding (agonist response): No other nucleotides or nucleosides (i.e., ATP, ADP, 2-methyl-thio-ADP, UTP, α,βmethylenATP and guanosine, all tested at 10 and 50 μM concentrations) had any effect

## Nc1ncnc2c1ncn2[C@@H]1O[C@H](COP(=O)(O)OP(=O)(O)O)[C@@H](O)[C@H]1O [ADP]
hGPR17 [1]
  effect on [35S]GTPγS binding (agonist response): No other nucleotides or nucleosides (i.e., ATP, ADP, 2-methyl-thio-ADP, UTP, α,βmethylenATP and guanosine, all tested at 10 and 50 μM concentrations) had any effect

## Nc1nc2c(ncn2[C@@H]2O[C@H](CO)[C@@H](O)[C@H]2O)c(=O)[nH]1 [guanosine]
hGPR17 [1]
  effect on [35S]GTPγS binding (agonist response): No other nucleotides or nucleosides (i.e., ATP, ADP, 2-methyl-thio-ADP, UTP, α,βmethylenATP and guanosine, all tested at 10 and 50 μM concentrations) had any effect

## N6-methyl-adenosin-3′,5′-bis-phosphate [MRS 2179]
hGPR17 [1]; antagonist of binding stimulated by 50 μM UDP-glucose, human GPR17
  IC50: 508 ± 29 nM

## CCCCC/C=C\C\C=C/C=C/C=C/[C@@H](SC[C@H](NC(=O)CC[C@H](N)C(=O)O)C(=O)NCC(=O)O)[C@@H](O)CCCC(=O)O [LTC, LTC4]
Rat GPR17
  EC50: 65 ± 4.2 nM
hGPR17 [3]
  response in [35S]GTPγS binding: induced responses
hGPR17 [1]
  EC50: 0.33 ± 0.011 nM

## CCCCC/C=C\C\C=C/C=C/C=C/[C@@H](SC[C@H](N)C(=O)NCC(=O)O)[C@@H](O)CCCC(=O)O [LTD, LTD4]
Rat GPR17
  EC50: 5.9 ± 0.4 nM
hGPR17 [4]
  cells showing rise of [Ca2+]i: approximately 30%
hGPR17 [3]
  response in [35S]GTPγS binding: induced responses
hGPR17 [5]
  cells showing [Ca2+]i transient: approximately 50%
hGPR17 [5]; n=22
  mean calcium response ΔF340/380: 0.18±0.03
hGPR17 [1]
  EC50: 7.2 ± 0.3 nM

## O=c1ccn([C@@H]2O[C@H](COP(=O)(O)OP(=O)(O)OP(=O)(O)O)[C@@H](O)[C@H]2O)c(=O)[nH]1 [UTP]
hGPR17 [1]
  effect on [35S]GTPγS binding (agonist response): No other nucleotides or nucleosides (i.e., ATP, ADP, 2-methyl-thio-ADP, UTP, α,βmethylenATP and guanosine, all tested at 10 and 50 μM concentrations) had any effect
